Laboratory results as given in patent US20130317053A1, “EXTERNALLY-USED DRUG FOR TREATING SKIN DISORDER AND METHOD FOR PRODUCING SAME” (OSAKA UNIVERSITY, priority 2011, published 2013).

How the values were obtained:
MITF = assay: expression level of mRNA of MITF in melanocytes (real-time RT-PCR); format: cell-based
Procedure: (§1) 1.4×10^5 melanocytes were inoculated in wells of 6-well culture plate, and a medium 254 (produced by KURABO […] LTD.; M254500) was added to the wells. Subsequently, the plate was incubated for 24 hours at a temperature of 37° C. in a 5% CO2 environment.
(§2) Sirolimus was added to the respective wells so as to have a final concentration of 0 nM (that is, no sirolimus is added to a culture medium), 1 nmol/L, 10 nmol/L, and 20 nmol/L, respectively. The plates were incubated for 24 hours or 48 hours at a temperature of 37° C. in a 5% CO2 environment.
(§3) From the wells thus incubated, the medium 254 was removed. Then, an operation of adding PBS to the wells and removing the PBS from the wells was carried out three times to wash the melanocytes with the PBS.
(§4) To the wells from which the PBS had been removed, 175 μL of an RNA lysis buffer was added. The RNA lysis buffer is attached to a kit of an SV Total RNA Solution System (manufactured by Promega Corporation; Z3105).
(§5) Melanocytes were peeled off the plate with use of a cell scraper.
(§6) The RNA lysis buffer containing melanocytes was collected into a 1.5 mL Eppendorf tube. Then, RNAs were extracted from the collected buffer.
(§7) Real-time RT-PCR was carried out with use of the RNAs to detect expression of mRNAs of MITF, mRNAs of TYR, mRNAs of TYRP1, and mRNAs of GAPDH. An expression level of the mRNAs of MITF, an expression level of the mRNAs of TYR, and an expression level of the mRNAs of TYRP1 were each calculated as a relative expression level with respect to an expression level of the mRNA of GAPD.
(§8) This experiment was carried out three times to calculate an average value and a standard deviation of relative expression levels of mRNAs of each of MITF, TYR, and TYRP1. Whether or not there was a statistically significant difference between test results obtained with use of the respective external medicines was checked by calculating a p value with use of a Student's t-test having no correspondence. In a case where the p value was less than 0.05, a statistically significant difference was recognized.
(§9) To detect expression of the mRNAs of MITF, TagMan® Gene Expression Assays (produced by Applied biosystems, Inc.; Hs00165156_m1) was used. To detect expression of the mRNAs of TYR, TagMan® Gene Expression Assays (produced by Applied biosystems, Inc.; Hs00165976_m1). To detect expression of the mRNAs of TYRP1, TagMan® Gene Expression Assays (produced by Applied biosystems, Inc.; Hs00167051_m1) was used. To detect expression of the mRNAs of GAPDH, TagMan® Gene Expression Assays (produced by Applied biosystems, Inc.; Hs99999905_m1) was used.

TYR = assay: expression level of mRNA of TYR in melanocytes (real-time RT-PCR); format: cell-based
Procedure: as §1, §2, §3, §4, §5, §6, §7, §8, §9

TYRP1 = assay: expression level of mRNA of TYRP1 in melanocytes (real-time RT-PCR); format: cell-based
Procedure: as §1, §2, §3, §4, §5, §6, §7, §8, §9

VEGF [1] = assay: inhibition of VEGF expression in cell of angiofibroma; format: cell-based, human
Procedure: (§10) A cell of angiofibroma, a human fibroblast, and HaCat, each of which was isolated from a patient with tuberous sclerosis complex, were used. Isolation of the cell of angiofibroma was carried out by removing angiofibroma from a patient who wished the angiofibroma to be removed and then using the primary culturing method. […] HaCat was purchased from German Cancer Research Center (dkfz). The cells obtained from the respective patients were used with the patients' consent.
(§11) The cell of angiofibroma, the human fibroblast, and HaCat were each cultured with use of a DME culture medium at a temperature of 37° C. in a 5% CO2 environment. During the culture of these cells, sirolimus was added to each of the culture mediums so as to have a final concentration of 0 nM (that is, no sirolimus is added to a culture medium (a control)), 1 nM, 10 nM, or 20 nM. The cells were each incubated again at a temperature of 37° C. in a 5% CO2 environment, and a culture supernatant was collected […] after sirolimus was added. A concentration of VEGF in the collected culture supernatant was measured with use of a kit (Quantikine® Human VEGF manufactured by R&D SYSTEMS®) for detecting VEGF.

VEGF [2] = assay: inhibition of VEGF expression in human fibroblast; format: cell-based; conditions: 20 nM, 72 hours
Procedure: as §10, §11

VEGF [3] = assay: inhibition of VEGF expression in HaCat; format: cell-based; conditions: 20 nM, 72 hours
Procedure: as §10, §11

SMILES: CO[C@H]1C[C@@H]2CC[C@@H](C)[C@@](O)(O2)C(=O)C(=O)N2CCCC[C@H]2C(=O)O[C@H]([C@H](C)C[C@@H]2CC[C@@H](O)[C@H](OC)C2)CC(=O)[C@H](C)/C=C(\C)[C@@H](O)[C@@H](OC)C(=O)[C@H](C)C[C@H](C)/C=C/C=C/C=C/1C [sirolimus]
- relative expression levels of MITF (MITF; 1 nM, 24 hours, relative to GAPDH, untreated 24 h 100.00±3.37): 152.48±3.47
- relative expression levels of MITF (MITF; 1 nM, 48 hours, untreated 48 h 107.95±1.38): 129.41±3.43
- relative expression levels of MITF (MITF; 20 nM, 24 hours, untreated 24 h 100.00±3.37): 152.18±14.75
- relative expression levels of MITF (MITF; 20 nM, 48 hours, untreated 48 h 107.95±1.38): 141.56±3.52
- relative expression levels of TYR (TYR; 1 nM, 24 hours, untreated 24 h 0.640±0.036): 0.820±0.047
- relative expression levels of TYR (TYR; 1 nM, 48 hours, untreated 48 h 0.771±0.009): 0.760±0.044
- relative expression levels of TYR (TYR; 20 nM, 24 hours, untreated 24 h 0.640±0.036): 0.921±0.029
- relative expression levels of TYR (TYR; 20 nM, 48 hours, untreated 48 h 0.771±0.009): 0.858±0.022
- relative expression levels of TYRP (TYRP1; 1 nM, 24 hours, untreated 24 h 1.031±0.027): 1.333±0.055
- relative expression levels of TYRP (TYRP1; 1 nM, 48 hours, untreated 48 h 1.338±0.029): 1.450±0.028
- relative expression levels of TYRP (TYRP1; 20 nM, 24 hours, untreated 24 h 1.031±0.027): 1.652±0.031
- relative expression levels of TYRP (TYRP1; 20 nM, 48 hours, untreated 48 h 1.338±0.029): 1.514±0.124
- concentration of VEGF in culture supernatant (VEGF [1]; 1 nM, 48 hours, untreated 260.2857): 113.1428 pg/mL
- concentration of VEGF in culture supernatant (VEGF [1]; 10 nM, 48 hours, untreated 260.2857): 92.4285 pg/mL
- concentration of VEGF decreased to (% of untreated) (VEGF [1]; 20 nM, 72 hours): about 20%
- rate of decrease in concentration of VEGF (ratio treated/untreated) (VEGF [1]; 20 nM, 72 hours): 0.196
- concentration of VEGF in culture supernatant (VEGF [1]; 20 nM, 72 hours, control 858.4): 168 pg/mL
- concentration of VEGF decreased to (% of untreated) (VEGF [2]): about 30%
- rate of decrease in concentration of VEGF (ratio treated/untreated) (VEGF [2]): 0.336
- concentration of VEGF in culture supernatant (VEGF [2]; control 1492.7): 501.3 pg/mL
- concentration of VEGF decreased to (% of untreated) (VEGF [3]): about 40%
- rate of decrease in concentration of VEGF (ratio treated/untreated) (VEGF [3]): 0.405
- concentration of VEGF in culture supernatant (VEGF [3]; control 1849.9): 749.9 pg/mL
